Laboratory results: patent publication US20180000089A1, “NOVEL MICROBIOCIDES” (Syngenta Participations AG, priority 2015, published 2018)

Key:
[1] = system: Glomerella lagenarium (Colletotrichum Lagenarium); experiment: Glomerella lagenarium (Colletotrichum lagenarium) / liquid culture (anthracnose); format: cell-based; conditions: Colletotrichum orbiculare, PDB, 24° C., inhibition of growth measured photometrically 3-4 days after application, read-out: disease control
Description: (§1) 10 Glomerella lagenarium (Colletotrichum Lagenarium)/Liquid Culture (Anthracnose): Conidia of the fungus from cryogenic storage were directly mixed into nutrient broth (PDB potato dextrose broth). After placing a DMSO solution of test compound into a 96-well microtiter plate at an application rate of 200 ppm, the nutrient broth containing the fungal spores was added. The test plates were incubated at 24° C. and the inhibition of growth was measured photometrically 3-4 days after application.

Gaeumannomyces Graminis = experiment: Gaeumannomyces graminis / liquid culture (take-all of cereals); format: cell-based; conditions: PDB, 24° C., inhibition of growth determined photometrically 4-5 days after application, read-out: disease control
Description: 13 Gaeumannomyces Graminis/Liquid Culture (Take-all of Cereals): Mycelial fragments of the fungus from cryogenic storage were directly mixed into nutrient broth (PDB potato dextrose broth). […] The test plates were incubated at 24° C. and the inhibition of growth was determined photometrically 4-5 days after application.

Pythium ultimum = Pythium ultimum / liquid culture (seedling damping off); format: cell-based; conditions: Globisporangium ultimum, potato dextrose broth, 24° C., inhibition of growth determined photometrically 2-3 days after application, read-out: disease control
Description: 8 Pythium ultimum/Liquid Culture (Seedling Damping Off) Mycelia fragments and oospores of a newly grown liquid culture of the fungus were directly mixed into nutrient broth (potato dextrose broth). After placing a DMSO solution of test compound into a 96-well format microtiter plate at an application rate of 200 ppm, the nutrient broth containing the fungal mycelia/spore mixture was added. The test plates were incubated at 24° C. and the inhibition of growth was determined photometrically 2-3 days after application.

[2] = system: Mycosphaerella graminicola (Septoria tritici); experiment: Mycosphaerella graminicola (Septoria tritici) / liquid culture (Septoria blotch); format: cell-based; conditions: Zymoseptoria tritici, PDB, 24° C., inhibition of growth determined photometrically 4-5 days after application, read-out: disease control
Description: as §1, with “12 Mycosphaerella graminicola (Septoria tritici)/Liquid” for “10 Glomerella lagenarium (Colletotrichum Lagenarium)/Liquid”, “(Septoria Blotch):” for “(Anthracnose):”, “determined” for “measured”, “4-5” for “3-4”

[3] = system: Monographella nivalis (Microdochium nivale); experiment: Monographella nivalis (Microdochium nivale) / liquid culture (foot rot cereals); format: cell-based; conditions: PDB, 24° C., inhibition of growth determined photometrically 4-5 days after application, read-out: disease control
Description: as §1, with “14 Monographella nivalis (Microdochium nivale)/liquid culture (foot rot cereals):” for “10 Glomerella lagenarium (Colletotrichum Lagenarium)/Liquid Culture (Anthracnose):”, “determined” for “measured”, “4-5” for “3-4”

Plasmopara viticola = experiment: whole plant or invertebrate; format: in vivo; conditions: foliar, read-out: disease control
Fusarium culmorum = experiment: microbe, parasite or virus in culture; format: cell-based; conditions: read-out: disease control

| Structure (SMILES) | inhibition of growth at 200 ppm [1] | melting point | inhibition of growth at 200 ppm (Gaeumannomyces Graminis) | inhibition of growth at 200 ppm (Pythium ultimum) | inhibition of growth at 200 ppm [2] | inhibition of growth at 200 ppm [3] | pest or weed control at 200 ppm (Plasmopara viticola) | inhibition of growth at 200 ppm (Fusarium culmorum) |
| --- | --- | --- | --- | --- | --- | --- | --- | --- |
| Cc1ccc(-c2cc3c(cc2Cl)COB3O)cc1C [Compound 2] | ≥ 80% | 155 to 165 °C | ≥ 80% | ≥ 80% | ≥ 80% |  |  |  |
| OB1OCc2cc(Cl)c(-c3ccc(O)cc3)cc21 [Compound 11] |  |  |  | ≥ 80% |  | ≥ 80% | ≥ 80% |  |
| COc1ccc(OC)c(-c2cc3c(cc2Cl)COB3O)c1 [Compound 12] | ≥ 80% | 95 to 115 °C | ≥ 80% | ≥ 80% | ≥ 80% | ≥ 80% | ≥ 80% |  |
| Cc1nc2c(-c3cc4c(cc3Cl)COB4O)cccc2s1 [Compound 13, 4-(5-chloro-1-hydroxy-3H-2,1-benzoxaborol-6-yl)-2-methyl-1,3-benzothiazole] | ≥ 80% |  | ≥ 80% | ≥ 80% | ≥ 80% | ≥ 80% |  |  |
| Cc1nc2cc(-c3cc4c(cc3Cl)COB4O)ccc2s1 [Compound 14, 5-(5-chloro-1-hydroxy-3H-2,1-benzoxaborol-6-yl)-2-methyl-1,3-benzothiazole] |  |  |  | ≥ 80% |  | ≥ 80% | ≥ 80% |  |
| Cc1nc2cccc(-c3cc4c(cc3Cl)COB4O)c2s1 [Compound 15, 7-(5-chloro-1-hydroxy-3H-2,1-benzoxaborol-6-yl)-2-methyl-1,3-benzothiazole] |  |  |  | ≥ 80% |  | ≥ 80% | ≥ 80% |  |
| OB1OCc2cc(Cl)c(-c3cccc4ncoc34)cc21 [Compound 16] | ≥ 80% |  | ≥ 80% | ≥ 80% | ≥ 80% | ≥ 80% |  |  |
| OB1OCc2cc(Cl)c(-c3cc(Br)ccc3-n3cccn3)cc21 [Compound 17] | ≥ 80% |  | ≥ 80% | ≥ 80% | ≥ 80% | ≥ 80% |  |  |
| OB1OCc2cc(Cl)c(-c3cc(-n4cccn4)ccc3Br)cc21 [Compound 18] | ≥ 80% |  | ≥ 80% | ≥ 80% | ≥ 80% | ≥ 80% |  |  |
| CC(=O)Nc1ccc(F)cc1-c1cc2c(cc1Cl)COB2O [Compound 19, N-[2-(5-chloro-1-hydroxy-3H-2,1-benzoxaborol-6-yl)-4-fluoro-phenyl]acetamide] |  |  |  | ≥ 80% | ≥ 80% |  |  | ≥ 80% |
| Cc1cc(C2CC2)nc(Nc2cccc(-c3cc4c(cc3Cl)COB4O)c2)n1 [Compound 23] |  |  |  |  |  | ≥ 80% |  |  |
| Cc1cc(C2CC2)nc(Nc2ccc(-c3cc4c(cc3Cl)COB4O)cc2)n1 [Compound 24] |  |  |  |  |  | ≥ 80% |  |  |
| COc1ccc(-c2cc3c(cc2F)COB3O)cc1 [Compound 26] | ≥ 80% |  |  | ≥ 80% | ≥ 80% | ≥ 80% |  | ≥ 80% |
| N#Cc1ccc(-c2cc3c(cc2F)COB3O)cc1 [Compound 29] |  | 270 to 272 °C |  | ≥ 80% |  | ≥ 80% |  |  |
| COC(=O)c1cc(-c2cc3c(cc2Cl)COB3O)ccc1OC [Compound 30] |  |  |  | ≥ 80% |  | ≥ 80% |  |  |
| OB1OCc2cc(F)c(-c3ccc(Cl)c(Cl)c3)cc21 [Compound 34] |  | 243 to 245 °C |  |  |  |  |  |  |
